Source: patent US20060135458A1, “Antiviral oligonucleotides” (priority 2002, published 2006)
In the oligonucleotide strings, read from the 5' end, every base follows the letter of its sugar. An asterisk marks phosphorothioate; unmarked linkages are phosphodiester. Other units and linkages are bracketed, terminal groups are in braces. A string of capitals states the bases alone. d = 2'-deoxy (DNA)

System: Bal 31
Design: key to the marks not given beside the values

## REP 2029: A40 (polyA) PS-ON (DNA dA*dA*dA*dA*dA*dA*dA*dA*dA*dA*dA*dA*dA*dA*dA*dA*dA*dA*dA*dA*dA*dA*dA*dA*dA*dA*dA*dA*dA*dA*dA*dA*dA*dA*dA*dA*dA*dA*dA*dA)
  Nuclease resistance, Bal 31: ++++
